One block for each molecule: values may come before it.
Experiments:
[1] = Chemical stability of LE formulations to 25 kGy gamma irradiation (degradant concentrations); type: physicochemical
Protocol: Gamma irradiation of a formulation can cause chemical degradation and free radical generation and is a concern especially in aqueous formulations. LE is a soft steroid designed to metabolize via the hydrolytic or enzymatic cleavage of two ester bonds into PJ-91 and PJ-90. […] The concentrations of the degradants were measured immediately after being subjected to gamma irradiation (“Gamma irradiated initial”) and 4 weeks after being subjected to gamma irradiation (“gamma irradiated after 4 weeks”) using a Cobalt 60 gamma irradiation source at a dose of 25 kGy. […] [table]

VEGF = assay: Rabbit VEGF-challenge model, leakage by fluorescein angiography; type: in vivo, Dutch belted rabbits; conditions: axitinib-MPP 5%, 50 μL every 4 hours days 1-6; Avastin one intravitreal injection day 1; VEGF day 3; angiography day 6
Description: On day 3, the rabbits received an intravitreal injection of VEGF. On day 6, the rabbits were accessed for leakage via fluorescein angiography.
In this model, Dutch belted rabbits were given an intravitreal injection of VEGF to stimulate vascular growth. Fluorescein angiography was used to determine the degree to which the rabbits developed abnormal vascular and leakage.

physchem = conditions: 25 °C, water

Amount of tetradeca when LE is gamma-irradiated [1]: above 1%
Molecule: CCOC(=O)O[C@]1(C(=O)OCCl)CC[C@H]2[C@@H]3CCC4=CC(=O)C=C[C@]4(C)[C@H]3[C@@H](O)C[C@@]21C [LE, loteprednol etabonate]

Molecule: Avastin®: bevacizumab; positive control, one intravitreal injection
Vessel growth and vascular leakage after intravitreal VEGF (VEGF): no change in retinal vasculature

solubility (physchem): ~150 µg/mL
Molecule: Nc1c(CC(=O)O)cccc1C(=O)c1ccc(Br)cc1 [bromfenac calcium]

From patent publication US20130316006A1, “PARTICLES, COMPOSITIONS AND METHODS FOR OPHTHALMIC AND/OR OTHER APPLICATIONS” (Kala Pharmaceuticals, Inc., priority 2012, published 2013)
